Reference: patent EP0252525B1, “Alpha-amylase assay using modified oligosaccharide and process for producing said modified oligosaccharide” (WAKO PURE CHEMICAL INDUSTRIES, LTD, priority 1986, dated 1988)
Where “and” joins values, the source holds several entries; their conditions need not be identical. Identical values can stand only once.

What was measured:
Format in all cases: biochemical
[1] = target: T1, human pancreatic α-amylase (HPA) (Homo sapiens, UniProt P04746); assay: Hydrolysis rate of substrates by α-amylase (relative to G5P); settings: substrate 1.0 mM, pH 7, value of G5P taken as 1
T1 sequence (P04746 16-511): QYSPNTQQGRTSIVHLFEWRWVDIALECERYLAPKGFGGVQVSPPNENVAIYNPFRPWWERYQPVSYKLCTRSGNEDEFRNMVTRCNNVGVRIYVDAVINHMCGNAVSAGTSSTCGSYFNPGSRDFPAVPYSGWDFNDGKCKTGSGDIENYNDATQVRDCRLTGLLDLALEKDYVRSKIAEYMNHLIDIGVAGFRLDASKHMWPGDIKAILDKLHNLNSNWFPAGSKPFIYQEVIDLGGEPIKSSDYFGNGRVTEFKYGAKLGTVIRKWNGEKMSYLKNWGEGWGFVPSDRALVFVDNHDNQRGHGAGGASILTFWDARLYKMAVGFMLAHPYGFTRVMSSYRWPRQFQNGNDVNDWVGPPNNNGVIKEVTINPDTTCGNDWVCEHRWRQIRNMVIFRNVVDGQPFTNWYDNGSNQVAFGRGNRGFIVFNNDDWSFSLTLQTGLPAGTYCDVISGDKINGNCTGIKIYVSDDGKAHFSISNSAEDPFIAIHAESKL
Procedure: (§1) The above-mentioned advantages can be shown by using the following oligosaccharides: [drawing 6] n = 2: BG4P n = 3: BG5P (the present invention) n = 4: BG6P n = 5: BG7P [drawing 7] n = 2: G4P n = 3: G5P (standard) n = 4: G6P n = 5: G7P [drawing 8] n = 2: BDG4P n = 3: BDG5P n = 4: BDG6P n = 5: BDG7P The hydrolysis rate is measured by using human pancreatic α-amylase (HPA) or human salivary α-amylase (HSA) for each substrate (1.0 mM) at pH 7, and evaluating by means of relative values by taking the value of G5P as 1.

[2] = target: T2, human salivary α-amylase (HSA) (Homo sapiens, UniProt P0DUB6); assay: as above; settings: substrate 1.0 mM, pH 7, value of G5P taken as 1
T2 sequence (P0DUB6 16-511): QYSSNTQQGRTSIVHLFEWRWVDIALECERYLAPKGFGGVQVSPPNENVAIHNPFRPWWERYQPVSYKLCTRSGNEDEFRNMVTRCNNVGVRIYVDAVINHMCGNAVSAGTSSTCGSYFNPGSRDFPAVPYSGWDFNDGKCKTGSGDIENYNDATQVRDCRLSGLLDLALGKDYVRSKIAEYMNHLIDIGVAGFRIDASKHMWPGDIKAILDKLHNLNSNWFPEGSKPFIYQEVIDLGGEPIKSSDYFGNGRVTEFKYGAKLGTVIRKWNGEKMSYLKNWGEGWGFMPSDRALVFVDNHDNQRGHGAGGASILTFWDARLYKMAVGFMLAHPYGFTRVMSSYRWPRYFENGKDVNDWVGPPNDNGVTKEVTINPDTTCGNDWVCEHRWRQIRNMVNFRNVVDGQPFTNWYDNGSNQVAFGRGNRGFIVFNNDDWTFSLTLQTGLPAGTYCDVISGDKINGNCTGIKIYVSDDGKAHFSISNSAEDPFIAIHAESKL
Procedure: as §1

HPA [3] = target: T3, HPA (Homo sapiens, UniProt P04746); assay: Km determination (Lineweaver-Burk plot, products measured by HPLC); settings: 50 mM BES/NaOH buffer pH 7.6, 37°C, 5 min
T3 sequence (P04746 16-511): T1 sequence (P04746 16-511)
Procedure: The amounts of the products were measured with HPLC.

HPA [4] = target: T3, HPA; assay: Binding mode (distribution of hydrolysis products) by HPLC; settings: for Hydrolysis product G2P: share of product G2P; for Hydrolysis product G3P: share of product G3P; for Hydrolysis product G4P: share of product G4P; for Hydrolysis product GP: share of product GP
Procedure: (§2) The binding mode of each substrate were measured with high-performance liquid chromatography (HPLC) as described above.

HSA = target: T4, HSA (Homo sapiens, UniProt P0DUB6); assay: as above; settings: for Hydrolysis product G2P: share of product G2P; for Hydrolysis product G3P: share of product G3P; for Hydrolysis product G4P: share of product G4P; for Hydrolysis product GP: share of product GP
T4 sequence (P0DUB6 16-511): T2 sequence (P0DUB6 16-511)
Procedure: as §2

SMILES | hydrolysis rate (relative value) [1] | hydrolysis rate (relative value) [2] | Km (HPA [3]) | Hydrolysis product G2P (HPA [4]) [%] | Hydrolysis product G3P (HPA [4]) [%] | Hydrolysis product G4P (HPA [4]) [%] | Hydrolysis product GP (HPA [4]) [%] | Hydrolysis product G2P (HSA) [%] | Hydrolysis product G3P (HSA) [%] | Hydrolysis product G4P (HSA) [%] | Hydrolysis product GP (HSA) [%] | Hydrolysis product (result in words) (HPA [4]) | Hydrolysis product (result in words) (HSA)
O=[N+]([O-])c1ccc(O[C@H]2O[C@H](CO)[C@@H](O[C@H]3O[C@H](CO)[C@@H](O[C@H]4O[C@H](CO)[C@@H](O[C@H]5O[C@H](CO)[C@@H](O[C@H]6O[C@H](CO)[C@@H](O[C@H]7O[C@H](CO)[C@@H](O[C@H]8O[C@@H]9COC(c%10ccccc%10)O[C@H]9[C@H](O)[C@H]8O)[C@H](O)[C@H]7O)[C@H](O)[C@H]6O)[C@H](O)[C@H]5O)[C@H](O)[C@H]4O)[C@H](O)[C@H]3O)[C@H](O)[C@H]2O)cc1 (some centres unmarked) [BDG7P] | 1.1 | 1.0 | 86 µM and 88.1 µM | 48 | 22 | 13 | 7 | 55 | 25 | 15 | 5 |  | 
O=[N+]([O-])c1ccc(O[C@H]2O[C@H](CO)[C@@H](O[C@H]3O[C@H](CO)[C@@H](O[C@H]4O[C@H](CO)[C@@H](O[C@H]5O[C@@H]6COC(c7ccccc7)O[C@H]6[C@H](O)[C@H]5O)[C@H](O)[C@H]4O)[C@H](O)[C@H]3O)[C@H](O)[C@H]2O)cc1 (some centres unmarked) [BDG4P] | 0 | 0 |  |  |  |  |  |  |  |  |  | Not hydrolyzed | Not hydrolyzed
O=[N+]([O-])c1ccc(O[C@H]2O[C@H](CO)[C@@H](O[C@H]3O[C@H](CO)[C@@H](O[C@H]4O[C@H](CO)[C@@H](O[C@H]5O[C@H](CO)[C@@H](O[C@H]6O[C@H](CO)[C@@H](O[C@H]7O[C@@H]8COC(c9ccccc9)O[C@H]8[C@H](O)[C@H]7O)[C@H](O)[C@H]6O)[C@H](O)[C@H]5O)[C@H](O)[C@H]4O)[C@H](O)[C@H]3O)[C@H](O)[C@H]2O)cc1 (some centres unmarked) [BDG6P] | 0.4 | 0.5 |  | 73 | 12 | 0 | 15 | 66 | 10 | 0 | 24 |  | 
O=[N+]([O-])c1ccc(O[C@H]2O[C@H](CO)[C@@H](O[C@H]3O[C@H](CO)[C@@H](O[C@H]4O[C@H](CO)[C@@H](O[C@H]5O[C@H](COCc6ccccc6)[C@@H](O)[C@H](O)[C@H]5O)[C@H](O)[C@H]4O)[C@H](O)[C@H]3O)[C@H](O)[C@H]2O)cc1 [BG4P] | 0.55 | 0.60 |  | 8 | 0 | 0 | 92 | 10 | 0 | 0 | 90 |  | 
O=[N+]([O-])c1ccc(O[C@H]2O[C@H](CO)[C@@H](O[C@H]3O[C@H](CO)[C@@H](O[C@H]4O[C@H](CO)[C@@H](O[C@H]5O[C@H](CO)[C@@H](O[C@H]6O[C@@H]7COC(c8ccccc8)O[C@H]7[C@H](O)[C@H]6O)[C@H](O)[C@H]5O)[C@H](O)[C@H]4O)[C@H](O)[C@H]3O)[C@H](O)[C@H]2O)cc1 (some centres unmarked) [BDG5P] | 0 | 0 |  |  |  |  |  |  |  |  |  | Not hydrolyzed | Not hydrolyzed
O=[N+]([O-])c1ccc(O[C@H]2O[C@H](CO)[C@@H](O[C@H]3O[C@H](CO)[C@@H](O[C@H]4O[C@H](CO)[C@@H](O[C@H]5O[C@H](CO)[C@@H](O[C@H]6O[C@H](CO)[C@@H](O[C@H]7O[C@H](COCc8ccccc8)[C@@H](O)[C@H](O)[C@H]7O)[C@H](O)[C@H]6O)[C@H](O)[C@H]5O)[C@H](O)[C@H]4O)[C@H](O)[C@H]3O)[C@H](O)[C@H]2O)cc1 [BG6P] | 1.4 | 1.4 |  | 23 | 73 | 0 | 4 | 29 | 68 | 0 | 3 |  | 

Now from value to compound:

hydrolysis rate (relative value) [1] | hydrolysis rate (relative value) [2] | Km (HPA [3]) | Hydrolysis product G2P (HPA [4]) [%] | Hydrolysis product G3P (HPA [4]) [%] | Hydrolysis product G4P (HPA [4]) [%] | Hydrolysis product GP (HPA [4]) [%] | Hydrolysis product G2P (HSA) [%] | Hydrolysis product G3P (HSA) [%] | Hydrolysis product G4P (HSA) [%] | Hydrolysis product GP (HSA) [%] | Hydrolysis product (result in words) (HPA [4]) | Hydrolysis product (result in words) (HSA) | SMILES
1.5 | 1.5 |  | 20 | 38 | 40 | 2 | 15 | 38 | 45 | 2 |  |  | O=[N+]([O-])c1ccc(O[C@H]2O[C@H](CO)[C@@H](O[C@H]3O[C@H](CO)[C@@H](O[C@H]4O[C@H](CO)[C@@H](O[C@H]5O[C@H](CO)[C@@H](O[C@H]6O[C@H](CO)[C@@H](O[C@H]7O[C@H](CO)[C@@H](O[C@H]8O[C@H](COCc9ccccc9)[C@@H](O)[C@H](O)[C@H]8O)[C@H](O)[C@H]7O)[C@H](O)[C@H]6O)[C@H](O)[C@H]5O)[C@H](O)[C@H]4O)[C@H](O)[C@H]3O)[C@H](O)[C@H]2O)cc1 [BG7P]
1.8 | 1.8 |  | 14 | 30 | 55 | 1 | 8 | 30 | 60 | 2 |  |  | O=[N+]([O-])c1ccc(O[C@H]2O[C@H](CO)[C@@H](O[C@H]3O[C@H](CO)[C@@H](O[C@H]4O[C@H](CO)[C@@H](O[C@H]5O[C@H](CO)[C@@H](O[C@H]6O[C@H](CO)[C@@H](O[C@H]7O[C@H](CO)[C@@H](O[C@H]8O[C@H](CO)[C@@H](O)[C@H](O)[C@H]8O)[C@H](O)[C@H]7O)[C@H](O)[C@H]6O)[C@H](O)[C@H]5O)[C@H](O)[C@H]4O)[C@H](O)[C@H]3O)[C@H](O)[C@H]2O)cc1 [Substrate G7P]
1.7 | 1.7 |  | 22 | 76 | 0 | 2 | 40 | 53 | 0 | 7 |  |  | O=[N+]([O-])c1ccc(O[C@H]2O[C@H](CO)[C@@H](O[C@H]3O[C@H](CO)[C@@H](O[C@H]4O[C@H](CO)[C@@H](O[C@H]5O[C@H](CO)[C@@H](O[C@H]6O[C@H](CO)[C@@H](O[C@H]7O[C@H](CO)[C@@H](O)[C@H](O)[C@H]7O)[C@H](O)[C@H]6O)[C@H](O)[C@H]5O)[C@H](O)[C@H]4O)[C@H](O)[C@H]3O)[C@H](O)[C@H]2O)cc1 [Substrate G6P]
0.70 | 0.75 |  | 55 | 0 | 0 | 45 | 74 | 0 | 0 | 26 |  |  | O=[N+]([O-])c1ccc(O[C@H]2O[C@H](CO)[C@@H](O[C@H]3O[C@H](CO)[C@@H](O[C@H]4O[C@H](CO)[C@@H](O[C@H]5O[C@H](CO)[C@@H](O)[C@H](O)[C@H]5O)[C@H](O)[C@H]4O)[C@H](O)[C@H]3O)[C@H](O)[C@H]2O)cc1 [Substrate G4P]
